Here are results for 8 compounds from US3988473A (priority 1975, dated 1976).

In general, LD50 refers to the dose at which mortality reaches 50%.

Data set [1] deals with Guinea Pig Intradermal Wheals. The conditions noted are these: in vivo.
The conditions of data set [2]: in vivo.
The next data set deals with rat sciatic nerve. Conditions: in vivo.
The subject of the next data set is Cat. Conditions: in vivo.
The next data set has as its system Female Mice. The conditions noted are these: mouse, in vivo.
For a further data set, the system named is tissue. The conditions noted are these: in vivo.
Data set [3] is described as follows: in vivo. The conditions noted are these: mouse.
Data set [4] concerns isolated frog sciatic nerve. On the set-up: species or system Rana pipiens. Conditions: for Greatest Depth of Block (% of action potential): frog, sciatic nerve.
Data set [5] in a line: in vivo. The conditions noted are these: mouse, ip.
In the next data set the test system is Sheep. Conditions: in vivo.
The next data set relates to Dog. The conditions noted are these: in vivo.
The test system of data set [6] is brain and the spinal cord. The conditions noted are these: in vivo.
The next data set relates to guinea pigs. Conditions: guinea pig, in vivo, sc, 646 mg/kg.
Data set [7] can be described thus: in vivo. The conditions noted are these: rat, sc.

Structures are written as SMILES. Several values for one entry are separate records, joined by “and”; a condition that tells them apart may be missing. Equal entries are not always repeated. Where two headings read alike, the source gives them in different places.

As for `Cc1cccc(C)c1NC(=O)CNC(C)(C)C` [A, 2-(tert.-butylamino)-2',6'-acetoxylidide], the “Duration of guinea pig intradermal wheals” value in [1] was 129 ± 14 min and 148 ± 20 min and 186 ± 17 min and 197 ± 14 min. The “Local anaesthetic effect (in words)” value in [2] is “unusually long-lasting local anaesthetic effect”. The Duration in the data set with rat sciatic nerve is 126 ± 12 and 157 ± 18. Also, in the data set on rat sciatic nerve, the Frequency was 5/5. Besides, in the data set on rat sciatic nerve, the Onset stood at 5 min. Besides, the “Duration of Block of Support of Weight” value with Cat is 54 ± 9 min and 104 ± 29 min. Also, the “Intravenous toxicity (in words)” value in the data set with Female Mice (iv) was “unusually low intravenous toxicity”. For the same compound, the “Tissue irritation (in words)” value with tissue was “quite satisfactory”. The LD50 in the data set “in vivo [3]” (ip) turned out to be 119 mg/kg; in the data set “in vivo [3]” (iv), 35.4 mg/kg; in “in vivo [3]” (sc), 141 mg/kg.

Consider `CCN(CC(=O)Nc1c(C)cccc1C)C(C)(C)CC` [C, 2-(N-ethyl-tert.-amylamino)-2',6'-acetoxylidide], for which the “Duration of guinea pig intradermal wheals” value in [1] is 158 ± 49 min and 230 ± 32 min and 301 ± 11 min. Besides, the “Average time for 80% recovery of action potential” value (shortened to “Average time for 80% recovery”) in [4] amounted to 29 min. For the same compound, in data set [4] (20000 µM), the “Greatest Depth of Block (% of action potential)” value is reported as 77%. In [2], the “Duration of anaesthesia (in words)” value is “significantly longer duration than compounds A and B”; the “Local anaesthetic effect (in words)” value was “unusual, long-lasting local anaesthetic effect and high local anaesthetic activity”. Moreover, the “Duration of rat sciatic nerve block (days)” value in the data set with rat sciatic nerve is 1 to 8 days. In the data set with Cat, the “Duration of Block of Support of Weight” value was 220 ± 64 min and 298 ± 56 min; the “Duration of Block of Support of Weight, 1 animal outside the mean” value was above 7 h. In the data set on Female Mice, the “Acute toxicity (in words)” value is “satisfactory low acute toxicity”. In the data set with tissue, the “Irritation compared with bupivacaine” value is “not more irritating than bupivacaine at 0.5% concentration” and the “Tissue irritation (in words)” value is “satisfactory low level of tissue irritation”. For the same compound, the 50% lethal dose (LD50) in “in vivo [3]” (ip) came to 81 mg/kg. In addition, the LD50 in “in vivo [3]” (iv) came to 7.4 mg/kg.

As to `Cc1cccc(C)c1NC(=O)C(C)NC(C)(C)C` (centres unmarked) [Compound B, 2-(tert.-butylamino)-2',6'-propionoxylidide], in data set [1], the “Guinea Pig Wheal Duration” value was 139 ± 24 and 160 ± 43 and 184 ± 36; the “Guinea Pig Wheal Frequency” value is recorded as 12/12. Also, in the data set with rat sciatic nerve, the “Adverse signs in rat sciatic test” value is “Depression, ataxia, loss of righting reflex in some animals”; the Duration is 128 ± 13 and 133 ± 7; the Frequency is given as 5/5; the Onset is 3 min and 2 min. Further, in the data set on rat sciatic nerve, the “Rat Sciatic Frequency” value is 8/10 and 10/10. Moreover, the LD50 in the data set “in vivo [5]” was 61 mg/kg.

On to `CCCN(CC(=O)Nc1c(C)cccc1C)C(C)(C)CC` [Compound D, 2-(N-n-propyl-tert.-amylamino)-2',6'-acetoxylidide], for which the “Duration of guinea pig intradermal wheals” value in data set [1] was 171 ± 26 min and 227 ± 21 min and 253 ± 16 min and 303 ± 19 min. Moreover, the “Average time for 80% recovery” value in [4] is reported as 163 min. In addition, the “Greatest Depth of Block (% of action potential)” value in data set [4] (5000 µM) was found to be 96%. Moreover, in the data set on Sheep, the “Duration of block of Digital Pain” value lay within 45 to 60 min and the Onset time fell in the range of 5 to 10 min. For the same compound, in [2], the “Duration of anaesthesia (in words)” value is “significantly longer duration than compounds A and B”; the “Local anaesthetic effect (in words)” value is “unusual, long-lasting local anaesthetic effect and high local anaesthetic activity”. For the same compound, in the data set with rat sciatic nerve, the “Duration of block, 2 animals outside the mean” value was 10 to 13 days; the “Duration of rat sciatic nerve block” value was 217 ± 25 min and 124 ± 50 min and 157 ± 30 min; the “Duration of rat sciatic nerve block (days)” value was 8 to 27 days and 13 to 30 days. Also, in the data set with Female Mice, the “Acute toxicity (in words)” value is on record as “satisfactory low acute toxicity”. In addition, in the data set on Dog, the “Duration of block of Digital Pain” value was in the range of 1 to 2 days; the “Duration, Digital Pain” value is 289 min and 338 min; the “Duration, Scrotal Pain” value is 218 min and 226 min; the “Recovery of the animals” value was “All animals recovered completely”. Further, the “Pathological change in brain and spinal cord” value in [6] is “no pathological change attributable to the drugs was found”. Also, in the data set with tissue, the “Irritation compared with bupivacaine” value is on record as “not more irritating than bupivacaine at 0.5% concentration” and the “Tissue irritation (in words)” value is “satisfactory low level of tissue irritation”. Further, in the data set “in vivo [3]” (ip), the LD50 turned out to be 39 mg/kg. For the same compound, the LD50 in the data set “in vivo [3]” (iv) was found to be 6.8 mg/kg. This compound registered a 50% lethal dose (LD50) in the data set “in vivo [3]” (sc) of 109 mg/kg.

Turning to `CCCCN(CC(=O)Nc1c(C)cccc1C)C(C)(C)C` [Compound E, 2-(N-n-butyl-tert.-butylamino)-2',6'-acetoxylide], in the data set with rat sciatic nerve, the “Duration of rat sciatic nerve block, Mean ± S.D.” value is 174 ± 26 min and 200 ± 18 min and 237 min; the “Frequencies and durations (in words)” value is “Frequencies and durations were good”; the “Frequency of rat sciatic nerve block” value was 9/10 and 10/10. In addition, in the data set with Dog, the “Duration of block of Digital Pain” value is 1 to 2 days and the “Recovery of the animals” value was “All animals recovered completely”. In addition, the Survival result in the data set with guinea pigs is “all animals survived”. In addition, in data set [6], the “Pathological change in brain and spinal cord” value is given as “no pathological change attributable to the drugs was found”. For the same compound, the LD50 in “in vivo [5]” came out at 284 mg/kg. In “in vivo [7]”, this compound showed a 50% lethal dose (LD50) of 1070 mg/kg.

With `CCC(C)(C)NCC(=O)Nc1c(C)cccc1C` [Compound F, 2-(N-tert.-amylamino)-2',6'-acetoxylidide], in the data set on rat sciatic nerve, the Duration is 97 ± 4 and 101 ± 8; the Frequency is recorded as 6/6; the Onset was 3 min and 2 min.

Consider `CCCCN1CCCCC1C(=O)Nc1c(C)cccc1C` (centres unmarked) [X, N-n-butylpipecolyl-2,6-xylidide, reference compound], for which, in data set [1], the “Duration of guinea pig intradermal wheals” value is 182 ± 4 min and 252 ± 5 min and 314 ± 10 min. For the same compound, in data set [4], the “Average time for 80% recovery” value worked out at 65 min. The “Greatest Depth of Block (% of action potential)” value in [4] (5000 µM) was 64%. In addition, the Toxic effects result with Cat is reported as “Toxic effects observed”. The LD50 in the data set “in vivo [3]” (ip) turned out to be 40 mg/kg; in “in vivo [3]” (iv), 6.4 mg/kg; in “in vivo [3]” (sc), 45 mg/kg.

For the compound `CCN(CC)CC(=O)Nc1c(C)cccc1C` [Y, diethylaminoaceto-2,6-xylide, reference compound], the “Duration of guinea pig intradermal wheals” value in data set [1] was 78 ± 9 min and 110 ± 13 min and 117 ± 6 min and 121 ± 12 min. Further, the “Duration of Block of Support of Weight” value in the data set on Cat turned out to be 88 ± 10 min.
